Data as given in article PMC4594923, “Food Polyphenols Fail to Cause a Biologically Relevant Reduction of COX-2 Activity” (PLoS ONE, 2015).
Entries after “also recorded” stand apart in the source; their conditions may differ. Marks after values point to notes of the source that are not given here.

Columns and labels:
[1] = target: T1, ovine recombinant COX–1 (Ovis aries, UniProt P05979); settings: based on PGE2 formation, n=3, same assay conditions; cited from earlier work
T1 sequence (P05979 25-600): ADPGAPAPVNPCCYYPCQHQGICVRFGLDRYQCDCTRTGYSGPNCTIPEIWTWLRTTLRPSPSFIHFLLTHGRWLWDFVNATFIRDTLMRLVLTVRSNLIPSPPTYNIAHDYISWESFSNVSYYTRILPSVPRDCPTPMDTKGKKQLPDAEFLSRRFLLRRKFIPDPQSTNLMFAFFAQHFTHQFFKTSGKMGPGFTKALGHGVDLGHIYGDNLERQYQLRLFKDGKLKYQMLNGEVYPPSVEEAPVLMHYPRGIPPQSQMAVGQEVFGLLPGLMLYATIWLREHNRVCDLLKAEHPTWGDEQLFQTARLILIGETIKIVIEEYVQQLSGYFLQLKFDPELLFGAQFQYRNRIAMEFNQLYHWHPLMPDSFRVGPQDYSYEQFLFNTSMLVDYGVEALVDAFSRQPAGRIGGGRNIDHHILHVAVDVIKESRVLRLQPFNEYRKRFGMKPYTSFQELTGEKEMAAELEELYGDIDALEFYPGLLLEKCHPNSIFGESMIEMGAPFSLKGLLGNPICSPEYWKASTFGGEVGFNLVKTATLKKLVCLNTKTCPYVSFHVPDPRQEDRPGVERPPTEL

[2] = test system: COX–2 protein; settings: Western Blot, same assay conditions; cited from earlier work
[3] = test system: COX–2 protein; settings: Western Blot, same assay conditions; cited from earlier work; remark: listed apart in the source
[4] = target: T1, ovine recombinant COX–1; assay: cell-free COX–1 enzyme assay (PGE2 formation, LC-MS); assay type: biochemical; parameters: purchased Cayman Chemicals/ Biomol, Hamburg, Germany
Procedure: The in vitro assays were performed as described [6, 16, 18] and COX metabolites were quantified by LC-MS [18].
Primary human monocytes were freshly isolated from human blood. Blood was collected from healthy human subjects after written informed consent was obtained. […] After 24 h, the supernatant was sampled for LC-MS and cells were collected for the COX–2 expression analysis by Western Blotting.
(§3) GraphPad Prism 5.0 (GraphPad Software, San Diego, USA) was used for data analysis, the fitting of dose response curves and calculation of the IC50 values. Statistical differences were determined by Dunnetts test (LPS vs. other groups).

[5] = test system: arachidonic acid (AA) cascade; assay: kidney tissue oxylipin/PG levels in LPS induced sepsis in mice;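 note: male C57BL/6N mice challenged with LPS, kidney taken 24 h later, oxylipins quantified by LC-MS after solid-phase extraction of tissue homogenate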
[6] = test system: COX–2; settings: different murine colitis models; cited from earlier work
[7] = test system: arachidonic acid (AA) cascade; assay: plasma oxylipin/PG levels in LPS induced sepsis in mice;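 note: male C57BL/6N mice given LPS, plasma oxylipins quantified by LC-MS after solid-phase extraction, pretreatment or vehicle given intraperitoneally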; assay type: in vivo, C57BL/6N mice; settings: mice, 24 h after LPS, vs. LPS group
Text: Twelve week old male C57BL/6N mice (Charles River, Sulzfeld, Germany) were used for all experiments. C57BL/6 male mice (H2^b, 11–13 weeks of age) were obtained from Charles River (Sulzfeld, Germany). Animals were cared for in accordance with the institution’s guidelines for experimental animals and with the guidelines of the American Physiological Society. […] Mice were monitored closely and if they appeared compromised (i.e. inactivity, no intake of food or water) after compound or LPS injection the experiment was terminated.
Oxylipin levels were analyzed in plasma and tissues by LC-MS following SPE extraction of 200 μl plasma or tissue homogenate (50 mg) on Chromabond C18 ec cartridges (Machery-Nagel, Düren, Germany) [19].
as §3

[8] = test system: IL–6; assay: kidney IL–6 mRNA (qPCR) in LPS induced sepsis in mice; assay type: in vivo, C57BL/6N mice; settings: compound i. p. 100 mg/kg bw 2 h before LPS, 24 h after LPS
Procedure: (§1) Samples were stored at -80°C till further analysis. […] Plasma was generated by centrifugation at 4000 g at 4°C and stored at -80°C till further analysis.
(§2) Tissue sections were stored in RNA-later immediately after organ retrieval. Total RNA was extracted using the RNeasy mini kit system (Qiagen, Hilden, Germany) and transcribed using Superscript II Reverse transcriptase (Invitrogen). Quantitative (q) PCR was performed on […] (Roche Diagnostics, Penzberg, Germany) using FastStart Sybr-Green chemistry. Gene-specific primers for IL–6 (Quantitec QT00098875, Qiagen) and MCP–1 (Quantitec QT00167832, Qiagen) were used for the gene of interest and HPRT served as house keeping gene for normalization (Quantitec QT00166768, Qigaen). Quantification was carried out using qgene software.

[9] = test system: MCP–1; assay: kidney MCP–1 mRNA (qPCR) in LPS induced sepsis in mice; assay type: in vivo, C57BL/6N mice; settings: compound i. p. 100 mg/kg bw 2 h before LPS, 24 h after LPS, vs. LPS group
Procedure: as §1, §2

[10] = clinical chemistry in plasma (urea, creatinine, AST, ALT, LDH) in LPS induced sepsis in mice; assay type: in vivo, C57BL/6N mice; settings: compound i. p. 100 mg/kg bw 2 h before LPS, 24 h after LPS
[11] = kidney tissue 24 h after LPS treatment, LPS +, mean
[12] = kidney tissue 24 h after LPS treatment, LPS +, mean, < = below LOQ
[13] = kidney tissue 24 h after LPS treatment, LPS +, mean, second listing of PGF2α (r9)
[14] = mice, compound i. p. 100 mg/kg bw 2 h before LPS, 24 h after LPS, vs. LPS group
[15] = compound i. p. 100 mg/kg bw 2 h before LPS (10 mg/kg bw i. p.)
[16] = compound i. p. 100 mg/kg bw 2 h before LPS

## C[C@@H]1C[C@H]2[C@@H]3CCC4=CC(=O)C=C[C@]4(C)[C@@]3(F)[C@@H](O)C[C@]2(C)[C@@]1(O)C(=O)CO [dexamethasone]
[1]
  IC50 (95% CI), cell-free – COX-1: no effect (up to 100 µM)
[2]
  COX-2 Expression, HCA-7: no effect (up to 100 µM)
[3]
  COX-2 Expression, primary monocytes: 1 µM - 3 nM: COX-2 ↓

## Oc1ccc(/C=C/c2cc(O)cc(O)c2)cc1 [Resveratrol, resveratrol]
[4]
  IC50: 0.49 µM
  effect on COX–1 dependent PGE2 formation, cell-free enzyme assay: dose-dependently decreased; also recorded: inhibited
[5]; [11]
  1a,1b-dihomo-PGF2α: 3.9^‡ nM
  4,5-DiHDPE: 15 nM
  4-HDHA: 16 nM
  5(6)-EpETrE: 66 nM
  5,6-DiHETrE: 1.5 nM
  5-HEPE: 1.1 nM
  5-HETE: 12 nM
  5-oxo-ETE: 17 nM
  6-keto-PGF1α: 80^* nM
  7,8-DiHDPE: 1.7 nM
  7-HDHA: 2.7 nM
  8(9)-EpETrE: 15 nM
  8,9-DiHETrE: 1.6 nM
  8-HDHA: 16 nM
  8-HETE: 4.2 nM
  8-iPF2a: 3.2^‡ nM
  9(10)-EpODE: 8.2 nM
  9(10)-EpOME: 81 nM
  9(10)-Epoxystearic acid: 40 nM
  9,10,13-TriHOME: 7.4 nM
  9,10-DiHODE: 1.3 nM
  9,10-DiHOME: 22 nM
  9,10-Dihydroxystearic acid: 60 nM
  9,12,13-TriHOME: 45 nM
  9-HETE: 3.1 nM
  9-HODE: 350^* nM
  9-HOTrE: 3.9 nM
  9-oxo-ODE: 43 nM
  10(11)-EpDPE: 30 nM
  10,11-DiHDPE: 2.3 nM
  10-HDHA: 3.5 nM
  11(12)-EpETE: 1.5 nM
  11(12)-EpETrE: 35 nM
  11,12-DiHETrE: 2.6 nM
  11-HDHA: 4.9 nM
  11-HETE: 31^‡ nM
  12(13)-EpODE: 3.4 nM
  12(13)-EpOME: 59 nM
  12,13-DiHOME: 48 nM
  12-HEPE: 2.1 nM
  12-HETE: 24 nM
  13(14)-EpDPE: 24 nM
  13,14-DiHDPE: 3.2 nM
  13,14-dihydro-15-keto-PGF2α: 4.3^‡ nM
  13-HDHA: 11^‡ nM
  13-HODE: 270 nM
  13-HOTrE: 3.6 nM
  13-oxo-ODE: 6.1 nM
  14(15)-EpETE: 1.7 nM
  14(15)-EpETrE: 28 nM
  14,15-DiHETE: 0.62 nM
  14,15-DiHETrE: 7.1 nM
  14-HDHA: 12 nM
  15(16)-EpODE: 24 nM
  15(S)-HETrE: 7.4^‡ nM
  15,16-DiHODE: 20 nM
  15-HETE: 38^‡ nM
  15-oxo-ETE: 7.5 nM
  16(17)-EpDPE: 23 nM
  16,17-DiHDPE: 8.5 nM
  16-HDHA: 6.9 nM
  17(18)-EpETE: 2.5 nM
  17,18-DiHETE: 2.6^* nM
  17-HDHA: 17 nM
  18-HEPE: 1.3 nM
  19(20)-EpDPE: 43 nM
  19,20-DiHDPE: 68 nM
  20-HDHA: 19 nM
  20-HEPE: 5.3 nM
  EKODE: 45 nM
  PGD2: 20^† nM
  PGE1: 11^† nM
  PGE2: 210^‡ nM
  PGF1α: 6.2^† nM
  PGF2α: 70^‡ nM
  TXB2: 3.8^† nM
[5]; [12]
  5,6-DiHETE: < 0.25 nM
  5-iPF2α: < 1.0 nM
  8(9)-EpETE: < 1.0 nM
  12,13-DiHODE: < 2.0 nM
  13,14-dihydro-15-keto-PGE1: 0.6 nM
  20-HETE: < 2.7 nM
  PGD1: 0.72 nM
[5]; [13]
  PGF2α: 70 nM
[5]; [14]
  kidney 6-keto-PGF1α level: increased
  kidney 8-iPGF2α level: increased
  kidney 13,14-dihydro-15-keto-PGE1 level: increased
  kidney PGE2 level: increased
  kidney PGF2α level: increased
[6]
  COX–2 expression and PGE2 production: reduced COX–2 expression and PGE2 production
[7]; [15]
  plasma PGE2 level: increased
[7]; compound i. p. 100 mg/kg bw 2 h before LPS (10 mg/kg bw i. p.), listed as resveratrol
  plasma PGE2 level: elevated
[7]; [16]
  sum of linoleic acid (LA) derived epoxy-metabolites in plasma: decrease

## Cc1ccc(-c2cc(C(F)(F)F)nn2-c2ccc(S(N)(=O)=O)cc2)cc1 [celecoxib, reference compound]
[5]; [11]
  1a,1b-dihomo-PGF2α: 0.54^* nM
  4,5-DiHDPE: 22^‡ nM
  4-HDHA: 21 nM
  5(6)-EpETrE: 130^† nM
  5,6-DiHETrE: 2.1^‡ nM
  5-HEPE: 1.5^‡ nM
  5-HETE: 16^‡ nM
  5-oxo-ETE: 31 nM
  6-keto-PGF1α: 36 nM
  7,8-DiHDPE: 1.9 nM
  7-HDHA: 4.8^‡ nM
  8(9)-EpETrE: 30^† nM
  8,9-DiHETrE: 1.7 nM
  8-HDHA: 24^‡ nM
  8-HETE: 4.6 nM
  8-iPF2a: 1.2 nM
  9(10)-EpOME: 160^* nM
  9(10)-Epoxystearic acid: 81^† nM
  9,10,13-TriHOME: 4.1 nM
  9,10-DiHODE: 1.3 nM
  9,10-DiHOME: 17^* nM
  9,10-Dihydroxystearic acid: 58 nM
  9,12,13-TriHOME: 24 nM
  9-HETE: 4.0^* nM
  9-HODE: 160 nM
  9-HOTrE: 4.3 nM
  9-oxo-ODE: 51 nM
  10(11)-EpDPE: 70^‡ nM
  10,11-DiHDPE: 2.0 nM
  10-HDHA: 4.3 nM
  11(12)-EpETE: 3.5^* nM
  11(12)-EpETrE: 77^† nM
  11,12-DiHETrE: 1.7^* nM
  11-HDHA: 6.6^* nM
  11-HETE: 10 nM
  12(13)-EpOME: 120^† nM
  12,13-DiHOME: 28^† nM
  12-HEPE: 2.9 nM
  12-HETE: 29 nM
  13(14)-EpDPE: 55^† nM
  13,14-DiHDPE: 1.5^‡ nM
  13,14-dihydro-15-keto-PGF2α: 0.72^† nM
  13-HDHA: 6.0 nM
  13-HODE: 140 nM
  13-HOTrE: 5.2 nM
  13-oxo-ODE: 9.2 nM
  14(15)-EpETE: 4.2^* nM
  14(15)-EpETrE: 57^† nM
  14,15-DiHETE: 0.34^‡ nM
  14,15-DiHETrE: 3.3^‡ nM
  14-HDHA: 17 nM
  15(16)-EpODE: 55 nM
  15(S)-HETrE: 4.0 nM
  15,16-DiHODE: 21 nM
  15-HETE: 19 nM
  15-oxo-ETE: 8.4 nM
  16(17)-EpDPE: 52^‡ nM
  16,17-DiHDPE: 2.8^‡ nM
  16-HDHA: 6.1 nM
  17,18-DiHETE: 2.1^‡ nM
  18-HEPE: 1.3 nM
  19(20)-EpDPE: 78^* nM
  19,20-DiHDPE: 29^‡ nM
  20-HDHA: 18 nM
  20-HEPE: 5.3 nM
  EKODE: 41 nM
  PGD2: 7.4 nM
  PGE1: 2.5 nM
  PGE2: 45 nM
  PGF1α: 1.4^† nM
  PGF2α: 15 nM
  TXB2: 1.3 nM
[5]; [12]
  5-iPF2α: < 1.0 nM
  8(9)-EpETE: 2.4^* nM
  12,13-DiHODE: < 2.0 nM
  13,14-dihydro-15-keto-PGE1: < 0.1 nM
  20-HETE: < 2.7 nM
  PGD1: < 0.50 nM
[5]; [13]
  PGF2α: 15 nM
[5]; [14]
  kidney 13,14-dihydro-15-keto-PGE1 level: <LOQ
  kidney 13,14-dihydro-15-keto-PGE2α level: lowered
[8]
  further increase of kidney IL–6 mRNA expression in comparison to LPS group: 9 fold
[9]
  kidney MCP–1 mRNA levels: did not affect
[7]; [15]
  plasma 6-keto-PGF1α level: below the limit of quantification; also recorded: decreased
  plasma 13,14-dihydro-15-keto-PGE1 level: below the limit of quantification; also recorded: decreased
  plasma 13,14-dihydro-15-keto-PGF2α level: massively decreased
  plasma PG levels (LPS induced PG increase): effectively attenuated; also recorded: reduced
  plasma PGE2 level: massively decreased
  plasma PGF2α level: below the limit of quantification
[7]; [16]
  plasma epoxy- and dihydroxy-fatty acid (FA) metabolites of the CYP pathway: decreased
[10]
  plasma ALT activity: elevated; also recorded: moderate elevation
  plasma AST activity: elevated; also recorded: moderate elevation
  plasma LDH activity: moderate elevation
  plasma creatinine level: elevation
  plasma urea level: elevation
